From US12569495B2, “Inhibitors of porcine reproductive and respiratory syndrome virus” (UNIVERSITY OF CONNECTICUT, priority 2020, dated 2026)
“Also recorded” adds a separate entry of the source.

Key:
[1] = test system: PRRSV strains VR-2332, SDSU73, NADC30 (Type II), or Lelystad (Type I); assay: qRT-PCR for PRRSV RNA in PAMs infected by different strains; format: cell-based; conditions: 15 μM; 4 h pre-treatment, 24 h post
Experimental: Total RNA was extracted from PAMs infected with PRRSV using RNeasy Mini Kit (Qiagen, Germantown, MD) according to the manufacturer's instruction. RNA concentrations were measured using a Nanodrop spectrophotometer (Thermo Fisher Scientific). GAPDH was used as a housekeeping gene for gene expression normalization. Data were processed with the software associated with ABI 7500.
For PRRSV infection of PAM cells, PAMs were seeded one day prior to infection. Control cells were treated with DMSO and test cells were treated with the selected screening compounds (5-20 μM) for 4 h before inoculation, during the 1 h PRRSV inoculation, and for 24 h after inoculation. Cells were inoculated with VR-2332, SDSU73, NADC30 or Lelystad PRRSV at MOI=0.1 for 1 h. The 24 h cell medium supernatant was stored at −80° C. until use.
The inhibitory effect of B7 was further tested on multiple strains of PRRSV. […] This inhibitory effect is further confirmed by viral titration results for the culture media of infected PAMs, with 2.8-3.1 log reduction of viral titers across the 3 Type II PRRSV strains and 2.2 log reduction of viral titer for the type I strain (Lelystad) by 15 μM B7 treatment (FIG. 5D). Thus, compound B7 indeed inhibits the PRRSV infection of PAMs. […]

[2] = biological target: T1, PPI between PRRSV GP4 glycoprotein and CD163-SRCR5 domain (Sus scrofa, UniProt Q2VL90); assay: BiFC assay between SRCR5-VN and GP4-VC proteins; format: cell-based, porcine CD163; PRRSV; conditions: HEK293T cells; DMSO as Ctrl
T1 construct: The amplified cDNA fragments of SRCR2 or SRCR5 were subcloned into the pBiFC-VN155(I152L) vector; Myc tag (from vector backbone pMyc-CMV); expressed in transfected cells; host or cells: HEK293T
T1 sequence (Q2VL90 477-577): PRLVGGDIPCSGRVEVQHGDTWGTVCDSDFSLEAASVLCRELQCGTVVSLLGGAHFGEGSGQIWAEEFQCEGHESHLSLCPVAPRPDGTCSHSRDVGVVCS
Excerpt: The N-terminus and C-terminus of the truncated Venus-I152L were inserted into vector backbone pMyc-CMV and pCMV-HA, constituting commercial plasmids pBiFC-VN155(I152L) and pBiFC-VC155, respectively (Addgene, Watertown, MA, USA). See Kodama and Hu, Biotechniques 49:793-805 (2010). cDNA fragments for the scavenger receptor cysteine-rich domain 2 (SRCR2) and SRCR5 of porcine CD163 receptor, and for PRRSV glycoproteins GP2a and GP4 were amplified by RT-PCR. The amplified cDNA fragments of SRCR2 or SRCR5 were subcloned into the pBiFC-VN155(I152L) vector digested with EcoRI/BglII. For constructions of GP2a and GP4 fusion proteins, cDNA fragments encoding GP2a or GP4 were subcloned into the pBiFC-VC155 vector digested with EcoRI/BglII. […]
HEK293T cells cultured in 12-well plates were transfected with appropriate plasmids for each BiFC assay using FuGENE® 6 (Promega, Madison, WI, USA). […] Fluorescence images of treated cells at 24 h after plasmid transfection were captured using an inverted Nikon fluorescence microscope. Fluorescence intensity of treated cells was measured by ImageJ. […]
The BiFC assays was tested to determine whether it could identify small molecules with potential to block the protein-protein interactions between CD163 and PRRSV. […] Twenty-four hours later, images were taken under a fluorescence microscope and the fluorescence quantified. […]

PRRSV strain VR-2332 = assay: PRRSV titration assay of culture media of infected PAMs; format: cell-based; conditions: for log reduction of viral titer: pre- and post-inoculation treatment
Experimental: For PRRSV infection of PAM cells, PAMs were seeded one day prior to infection. […] Cells were inoculated with VR-2332, SDSU73, NADC30 or Lelystad PRRSV at MOI=0.1 for 1 h. The 24 h cell medium supernatant was stored at −80° C. until use.
For PRRSV titration assay, MARC145 cells were seeded in 48-well plates and grew to ˜80% density before inoculation. Viral supernatants were prepared by 10-fold serial dilution, and 100 μl of the dilutions was added per well in six replicates. Inocula were removed from cells after 2 h and replaced with 0.5 mL of DMEM supplemented with 2% FBS, 2 mM glutamine, 0.1 mM MEM non-essential amino acids, 50 U/mL penicillin, and 50 μg/mL streptomycin (Invitrogen). Cells were cultured at 37° C. for 6 days and any cytopathic effects were observed and recorded. The PRRSV titer was calculated using the Reed and Muench method and expressed as median tissue culture infectious dose (TCID50/mL). Reed and Muench, Am. J. Epidemiol. 27(3): 493-497 (1938).

Cc1cc(F)ccc1S(=O)(=O)Nc1nc2ccccc2nc1Nc1cccc(S(=O)(=O)N2CCOCC2)c1 [Compound B7, 4-fluoro-2-methyl-N-[3-(3-morpholin-4-ylsulfonylanilino)quinoxalin-2-yl]benzenesulfonamide]
viral RNA detected in infected PAMs (qRT-PCR), all PRRSV strains [1]: significantly decreased the viral RNA; also recorded: significantly inhibited the infection | inhibition of PPI between PRRSV GP4 glycoprotein and CD163-SRCR5 domain (BiFC) [2]: also inhibited the PPI; also recorded: significantly inhibits the interaction | log reduction of viral titer (PRRSV strain VR-2332; 10 μM, 24 h): 1.7 log | log reduction of PRRSV titer, post-inoculation treatment alone (PRRSV strain VR-2332; 15 μM, 24 h): 2.8 log | log reduction of viral titer (PRRSV strain VR-2332; 15 μM, 24 h): 2.9 log | inhibition of PRRSV infection of PAMs (titration of culture media) (PRRSV strain VR-2332; 10-20 μM B7, 24 h): inhibited PRRSV infection of PAMs effectively
